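Five compound concentrations were applied to cells in 96-well plates for 48 hours; endpoints were derived by simple linear interpolation of the resulting dose-response curve. At the GI50, growth is halved. TGI: concentration producing complete growth inhibition.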
Legend:
Assay in all cases: DTP human tumour cell line panel, 48 h
[1] = test system: EKVX NSCLC
[2] = test system: NCI-H226 lung
[3] = test system: MDA-MB-231 breast
[4] = test system: SK-OV-3 ovarian
[5] = test system: A549 NSCLC
[6] = test system: OVCAR-5 ovarian
[7] = test system: ACHN renal
[8] = test system: SNB-19 CNS
[9] = test system: SF-539 CNS
[10] = test system: MCF7 breast
[11] = test system: NCI-H460 lung
[12] = test system: NCI/ADR-RES ovarian
[13] = test system: CAKI-1 renal
[14] = test system: OVCAR-3 ovarian
[15] = test system: SF-295 CNS
[16] = test system: PC-3 prostate
[17] = test system: NCI-H23 lung
[18] = test system: MDA-N
[19] = test system: UACC-62 melanoma
[20] = test system: HCT-15 colon
[21] = test system: KM12 colon
[22] = test system: MALME-3M melanoma
[23] = test system: UACC-257 melanoma
[24] = test system: IGROV1 ovarian
[25] = test system: M14 melanoma
[26] = test system: SF-268 CNS
[27] = test system: TK-10 renal
[28] = test system: HCC-2998 colon
[29] = test system: DU-145 prostate
[30] = test system: BT-549 breast
[31] = test system: COLO 205 colon
[32] = test system: NCI-H522 lung
[33] = test system: HOP-62 NSCLC
[34] = test system: 786-0 renal
[35] = test system: LOX IMVI melanoma
[36] = test system: SK-MEL-5 melanoma
[37] = test system: RXF 393 renal
[38] = test system: HCT-116 colon
[39] = test system: UO-31 renal
[40] = test system: SW-620 colon
[41] = test system: SK-MEL-28 melanoma
[42] = test system: SNB-75 CNS
[43] = test system: MDA-MB-435
[44] = test system: OVCAR-4 ovarian
[45] = test system: MOLT-4 leukemia
[46] = test system: A498 renal
[47] = test system: U251 CNS
[48] = test system: OVCAR-8 ovarian
[49] = test system: RPMI-8226 leukemia
[50] = test system: HOP-92 NSCLC
[51] = test system: HT29 colon
[52] = test system: SN12C renal
[53] = test system: T-47D breast
[54] = test system: SK-MEL-2 melanoma
[55] = test system: SR leukemia
[56] = test system: K-562 leukemia
[57] = test system: CCRF-CEM leukemia
[58] = test system: HL-60(TB) leukemia
[59] = test system: HS 578T breast

C=CCn1c(-c2ccccc2)cs/c1=N\C(P(=O)(O)O)P(=O)(O)O
TGI [1]: > 100 µM
TGI [2]: > 100 µM
TGI [3]: > 100 µM
TGI [4]: > 100 µM
TGI [5]: > 100 µM
TGI [6]: > 100 µM
TGI [7]: > 100 µM
TGI [8]: > 100 µM
TGI [9]: > 100 µM
TGI [10]: > 100 µM
TGI [11]: > 100 µM
TGI [12]: > 100 µM
TGI [13]: > 100 µM
TGI [14]: > 100 µM
TGI [15]: > 100 µM
TGI [16]: > 100 µM
TGI [17]: > 100 µM
TGI [18]: > 100 µM
TGI [19]: > 100 µM
TGI [20]: > 100 µM
TGI [21]: > 100 µM
TGI [22]: > 100 µM
TGI [23]: > 100 µM
TGI [24]: > 100 µM
TGI [25]: > 100 µM
TGI [26]: > 100 µM
TGI [27]: > 100 µM
TGI [28]: > 100 µM
TGI [29]: > 100 µM
TGI [30]: > 100 µM
TGI [31]: > 100 µM
TGI [32]: > 100 µM
TGI [33]: > 100 µM
TGI [34]: > 100 µM
TGI [35]: > 100 µM
TGI [36]: > 100 µM
TGI [37]: > 100 µM
TGI [38]: > 100 µM
TGI [39]: > 100 µM

N#CC(c1nc2ccccc2s1)c1nc(Cl)ncc1Br (centres undefined)
TGI [1]: > 100 µM
TGI [2]: > 100 µM
TGI [3]: > 100 µM
TGI [4]: > 100 µM
TGI [5]: > 100 µM
TGI [40]: > 100 µM
TGI [6]: > 100 µM
TGI [7]: > 100 µM
TGI [8]: > 100 µM
TGI [9]: 82 µM
TGI [41]: > 100 µM
TGI [42]: 71 µM
TGI [43]: > 100 µM
TGI [44]: > 100 µM
TGI [45]: > 100 µM
TGI [46]: > 100 µM
TGI [47]: > 100 µM
TGI [48]: > 100 µM
TGI [11]: > 100 µM
TGI [12]: > 100 µM
TGI [13]: > 100 µM
TGI [49]: 81.1 µM
TGI [14]: 97.7 µM
TGI [15]: > 100 µM
TGI [50]: 52 µM
TGI [17]: 73.9 µM
TGI [18]: > 100 µM
TGI [51]: > 100 µM
TGI [52]: > 100 µM
TGI [20]: > 100 µM
TGI [21]: > 100 µM
TGI [22]: > 100 µM
TGI [23]: > 100 µM
TGI [24]: > 100 µM
TGI [25]: > 100 µM
TGI [26]: > 100 µM
TGI [27]: > 100 µM
TGI [29]: > 100 µM
TGI [30]: 80.5 µM
TGI [31]: > 100 µM
TGI [32]: 62.1 µM
TGI [33]: > 100 µM
TGI [34]: > 100 µM
TGI [35]: > 100 µM
TGI [36]: 43.5 µM
TGI [37]: 90.3 µM
TGI [38]: 69.8 µM
TGI [39]: > 100 µM
TGI [53]: > 100 µM

N=C1c2nc3n(c2C(=O)c2nc4n(c21)CCCC4)CCCC3
GI50 [1]: 44.7 µM
TGI [1]: > 100 µM
GI50 [2]: 1.08 µM
TGI [2]: 3.38 µM
GI50 [3]: 33.6 µM
TGI [3]: > 100 µM
GI50 [4]: 34.2 µM
TGI [4]: > 100 µM
GI50 [54]: 23.4 µM
TGI [54]: > 65 µM
GI50 [5]: 1.98 µM
TGI [5]: 4.33 µM
GI50 [40]: 3.8 µM
TGI [40]: 24.4 µM
GI50 [6]: 2.28 µM
TGI [6]: 4.89 µM
GI50 [7]: 20.5 µM
TGI [7]: > 100 µM
GI50 [8]: 2.89 µM
TGI [8]: 12.5 µM
GI50 [9]: 2.42 µM
TGI [9]: 5.2 µM
GI50 [41]: 1.84 µM
TGI [41]: 3.7 µM
GI50 [42]: 1.83 µM
TGI [42]: 3.57 µM
GI50 [55]: 13.4 µM
TGI [55]: > 79.3 µM
GI50 [43]: 0.235 µM
TGI [43]: 0.504 µM
GI50 [44]: 24.7 µM
TGI [44]: > 100 µM
GI50 [45]: 47.2 µM
TGI [45]: > 100 µM
GI50 [46]: 0.727 µM
TGI [46]: 8.16 µM
GI50 [10]: 1.36 µM
TGI [10]: 3.61 µM
GI50 [47]: 5.75 µM
TGI [47]: 48.7 µM
GI50 [48]: 32.8 µM
TGI [48]: > 100 µM
GI50 [11]: 1.59 µM
TGI [11]: 3.54 µM
GI50 [12]: 35.6 µM
TGI [12]: > 100 µM
GI50 [13]: 19.1 µM
TGI [13]: > 83.2 µM
GI50 [49]: 27.5 µM
TGI [49]: > 100 µM
GI50 [14]: 27.1 µM
TGI [14]: > 100 µM
GI50 [15]: 1.74 µM
TGI [15]: 3.4 µM
GI50 [16]: > 68.8 µM
TGI [16]: > 100 µM
GI50 [50]: 52.8 µM
TGI [50]: > 100 µM
GI50 [17]: 1.37 µM
TGI [17]: 3.86 µM
GI50 [51]: 2.56 µM
TGI [51]: 5.51 µM
GI50 [19]: 0.784 µM
TGI [19]: 2.04 µM
GI50 [56]: 19.8 µM
TGI [56]: > 100 µM
GI50 [52]: 1.58 µM
TGI [52]: 3.12 µM
GI50 [20]: 2.07 µM
TGI [20]: 6.62 µM
GI50 [21]: 16.6 µM
TGI [21]: > 100 µM
GI50 [22]: 1.7 µM
TGI [22]: 3.7 µM
GI50 [23]: 1.67 µM
TGI [23]: 4.81 µM
GI50 [24]: 41.6 µM
TGI [24]: > 100 µM
GI50 [25]: 1.82 µM
TGI [25]: 3.29 µM
GI50 [26]: 11.9 µM
TGI [26]: > 74.9 µM
GI50 [57]: 20.5 µM
TGI [57]: > 100 µM
GI50 [27]: 52.6 µM
TGI [27]: > 100 µM
GI50 [28]: 3.74 µM
TGI [28]: 12.8 µM
GI50 [29]: 1.5 µM
TGI [29]: 2.9 µM
GI50 [30]: 2.22 µM
TGI [30]: 4.94 µM
GI50 [31]: 1.83 µM
TGI [31]: 3.39 µM
GI50 [32]: 4.17 µM
TGI [32]: 26.1 µM
GI50 [58]: 31 µM
TGI [58]: > 84.3 µM
GI50 [33]: 0.921 µM
TGI [33]: 3.54 µM
GI50 [34]: 32.2 µM
TGI [34]: > 89.3 µM
GI50 [35]: 0.406 µM
TGI [35]: 2.15 µM
GI50 [36]: 0.431 µM
TGI [36]: 0.864 µM
GI50 [37]: 15.8 µM
TGI [37]: 51 µM
GI50 [38]: 19.8 µM
TGI [38]: > 100 µM
GI50 [39]: 4.03 µM
TGI [39]: 28.6 µM
GI50 [59]: 2.18 µM
TGI [59]: 6.68 µM
GI50 [53]: 11.7 µM
TGI [53]: > 100 µM

— PubChem BioAssay (NCI)
